According to US20120252796A1, “COMPOUNDS FOR THE TREATMENT OF DYSLIPIDEMIA AND RELATED DISEASES” (priority 2009, published 2012):

Biological target: PCSK9 (Homo sapiens, UniProt Q8NBP7)
Test: PCSK9-LDLR in vitro Binding Assay (ELISA)
Settings: for inhibition at 5 µM: Concentration 5 μM
Protocol: The PCSK9-LDLR in vitro Binding Assay is a quantitative solid phase binding assay between PCSK9 and recombinant LDLR. Plates were pre-coated with a recombinant LDLR-AB domain, which binds PCSK9. Test compound at different concentration was added to the PCSK9 and added to LDLR immobilized on the wells. The amount of bound PCSK9 is measured by binding it with biotinylated anti-His-tag monoclonal antibody, followed by binding with horseradish peroxidase conjugated streptavidin substrate. The color was quantified by ELISA reader at […] which reflects the relative amount of PCSK9 that binds to LDLR in presence and absence of the inhibitor. EC50 values were calculated by nonlinear regression analysis using graph pad prism software. Each concentration point represents values in duplicates.

PCSK9, sequence (Q8NBP7 153-692): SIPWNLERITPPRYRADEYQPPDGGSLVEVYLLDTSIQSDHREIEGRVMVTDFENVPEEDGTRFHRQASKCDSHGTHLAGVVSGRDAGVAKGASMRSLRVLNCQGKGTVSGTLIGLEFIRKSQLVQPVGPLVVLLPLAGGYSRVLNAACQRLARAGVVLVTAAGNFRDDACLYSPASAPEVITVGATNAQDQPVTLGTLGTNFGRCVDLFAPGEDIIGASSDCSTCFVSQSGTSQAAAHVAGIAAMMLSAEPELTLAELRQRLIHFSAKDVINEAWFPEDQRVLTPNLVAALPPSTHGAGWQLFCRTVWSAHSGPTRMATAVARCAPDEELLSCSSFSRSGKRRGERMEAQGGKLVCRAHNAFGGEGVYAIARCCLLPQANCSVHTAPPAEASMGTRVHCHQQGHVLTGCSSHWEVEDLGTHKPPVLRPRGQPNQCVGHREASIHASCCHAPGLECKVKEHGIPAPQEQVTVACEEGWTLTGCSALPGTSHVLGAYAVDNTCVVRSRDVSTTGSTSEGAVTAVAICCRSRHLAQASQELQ
PCSK9, sequence (Q8NBP7 31-152 partner limits assumed): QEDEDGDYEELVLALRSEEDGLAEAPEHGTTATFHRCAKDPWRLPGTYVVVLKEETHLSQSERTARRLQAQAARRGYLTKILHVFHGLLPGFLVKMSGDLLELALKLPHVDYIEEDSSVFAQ

Q: Which results are given for `Cc1oc(-c2ccccc2)nc1CC1COC(C)(C(=O)N2CCOCC2)OC1` (stereo not shown) [Example 11, (2-methyl-5-((5-methyl-2-phenyloxazol-4-yl)methyl)-1,3-dioxan-2-yl)(morpholino)methanone]?
A: inhibition at 5 µM: 20%; inhibition at 10 µM (Concentration 10 μM): 30%; inhibition at 100 µM (Concentration 100 μM): 44%

Q: Which “% Inhibition PCSK9” value (Concentration 10 μM) does the source give for `Cc1oc(-c2ccccc2)nc1CCC1COC(C)(C(=O)NCC(=O)N2CCN(C)CC2)OC1` (stereo not shown) [Example 51, 2-methyl-5-c-(2-(5-methyl-2-phenyloxazol-4-yl)ethyl)-N-(2-(4-methylpiperazin-1-yl)-2-oxoethyl)-1,3-dioxane-2-carboxamide] here?
A: 10%

Q: And the “% Inhibition PCSK9” value (Concentration 100 μM)?
A: 35%

Q: What does the source list for `Cc1ccc(-c2nc(CC3COC(C)(C(=O)N4CCOCC4)OC3)c(C)o2)s1` (stereo not shown) [Example 76]?
A: % Inhibition PCSK9 (Concentration 1 μM): 6%; % Inhibition PCSK9 (Concentration 10 μM, 10 µM): 17%; % Inhibition PCSK9 (Concentration 100 μM, 100 µM): 27%

Q: For `Cc1ccc(-c2nc(CC3COC(C)(C(=O)NCC4CCOCC4)OC3)c(C)o2)s1` (stereo not shown) [Example 74, 2-methyl-5-c-((5-methyl-2-(5-methylthiophen-2-yl)oxazol-4-yl)methyl)-N—((tetrahydro-2H-pyran-4-yl)methyl)-1,3-dioxane-2-carboxamide], which “% Inhibition PCSK9” value (Concentration 1 μM, 1 µM) is on record?
A: 4%

Q: And the “% Inhibition PCSK9” value (Concentration 10 μM, 10 µM)?
A: 15%

Q: And the “% Inhibition PCSK9” value (Concentration 100 μM, 100 µM)?
A: 27%

Q: What does the source list for `Cc1oc(-c2ccncc2)nc1CC1COC(C)(C(=O)NO)OC1` (stereo not shown) [Example 81, N-hydroxy-2-methyl-5-t-((5-methyl-2-(pyridin-4-yl)oxazol-4-yl)methyl)-1,3-dioxane-2-carboxamide]?
A: % Inhibition PCSK9 (Concentration 1 μM, 1 µM): 7%; % Inhibition PCSK9 (Concentration 10 μM, 10 µM): 12%; % Inhibition PCSK9 (Concentration 100 μM, 100 µM): 23%

Q: Which “% Inhibition PCSK9” value (Concentration 10 μM) does the source give for `Cc1oc(-c2ccccc2)nc1CC1COC(C)(C(=O)NCC(=O)NCC2CCOCC2)OC1` (stereo not shown) [Example 25, 2-methyl-5-c-((5-methyl-2-phenyloxazol-4-yl)methyl)-N-(2-oxo-2-(((tetrahydro-2H-pyran-4-yl)methyl)amino)methyl)-1,3-dioxane-2-carboxamide] here?
A: 15%

Q: And the “% Inhibition PCSK9” value (Concentration 100 μM)?
A: 16%

Q: How did the inhibition at 0.1 µM (Concentration 0.1 μM) turn out when `Cc1ccc(-c2nc(CC3COC(C)(C(=O)NCC4CCOCC4)OC3)c(C)o2)cc1` (stereo not shown) [Example 62, 2-methyl-5-((5-methyl-2-(p-tolyl)oxazol-4-yl)methyl)-N—((tetrahydro-2H-pyran-4-yl)methyl)-1,3-dioxane-2-carboxamide] was run?
A: 17%

Q: And the inhibition at 1 µM (Concentration 1 μM)?
A: 21%

Q: And the inhibition at 10 µM (Concentration 10 μM)?
A: 14%

Q: And the inhibition at 100 µM (Concentration 100 μM)?
A: 41%

Q: With `Cc1oc(-c2ccccc2)nc1CC1COC(C)(C(=O)NCCC(=O)N2CCS(=O)(=O)CC2)OC1` (stereo not shown) [Example 29, N-(3-(1,1-dioxidothiomorpholino)-3-oxopropyl)-2-methyl-5-c-((5-methyl-2-phenyloxazol-4-yl)methyl)-1,3-dioxane-2-carboxamide] as the compound, how does the “% Inhibition PCSK9” value (Concentration 10 μM) read?
A: 8%

Q: And the “% Inhibition PCSK9” value (Concentration 100 μM)?
A: 12%

Q: For `Cc1oc(-c2ccccc2)nc1CCC1COC(C)(C(=O)NCC(=O)N2CCOCC2)OC1` (stereo not shown) [Example 49, 2-methyl-5-t-(2-(5-methyl-2-phenyloxazol-4-yl)ethyl)-N-(2-morpholino-2-oxoethyl)-1,3-dioxane-2-carboxamide], which “% Inhibition PCSK9” value (Concentration 100 μM) is on record?
A: 17%

Q: How did the “% Inhibition PCSK9” value (Concentration 10 μM) turn out when `Cc1oc(-c2ccccc2)nc1CC1COC(C)(C(=O)NCC(=O)N2CCCCC2)OC1` (stereo not shown) [Example 22, 2-methyl-5-c-((5-methyl-2-phenyloxazol-4-yl)methyl)-N-(2-oxo-2-(piperidin-1-yl)ethyl)-1,3-dioxane-2-carboxamide] was run?
A: 25%

Q: What about the “% Inhibition PCSK9” value (Concentration 100 μM) of the same compound?
A: 17%

Q: Which results are given for `Cc1oc(-c2ccccc2)nc1CC1COC(C)(C(=O)NCC2CCOCC2)OC1` (stereo not shown) [Example 9, 2-methyl-5-c-((5-methyl-2-phenyloxazol-4-yl)methyl)-N—((tetrahydro-2H-pyran-4-yl)methyl)-1,3-dioxane-2-carboxamide]?
A: % Inhibition PCSK9 (Concentration 10 μM): 15%; % Inhibition PCSK9 (Concentration 100 μM): 12%

Q: How did the “% Inhibition PCSK9” value (Concentration 100 μM) turn out when `Cc1oc(-c2ccccc2)nc1CC1COC(C)(C(=O)N2CCS(=O)(=O)CC2)OC1` (stereo not shown) [Example 17, (1,1-dioxidothiomorpholino)(2-methyl-5-c-((5-methyl-2-phenyloxazol-4-yl)methyl)-1,3-dioxan-2-yl)methanone] was run?
A: 15%

Q: With `Cc1oc(-c2ccccc2)nc1CCC1COC(C)(C(=O)NCC(=O)N2CCOCC2)OC1` (stereo not shown) [Example 47, 2-methyl-5-(2-(5-methyl-2-phenyloxazol-4-yl)ethyl)-N-(2-morpholino-2-oxoethyl)-1,3-dioxane-2-carboxamide] as the compound, how does the inhibition at 1 µM (Concentration 1 μM) read?
A: 38%

Q: What about the inhibition at 10 µM (Concentration 10 μM) of the same compound?
A: 38%

Q: What about the inhibition at 100 µM (Concentration 100 μM) of the same compound?
A: 42%

Q: `CC1(C(=O)NO)OCC(CCCn2c3ccccc3c3ccccc32)CO1` (stereo not shown) [Example 96, 5-c-(3-(9H-carbazol-9-yl)propyl)-N-hydroxy-2-methyl-1,3-dioxane-2-carboxamide] was tested. Which “% Inhibition PCSK9” value (Concentration 10 μM) did it give?
A: 10%

Q: Which inhibition at 10 µM (Concentration 10 μM) does the source give for `Cc1ccc(-n2nc(C(C)(C)C)cc2CC2COC(C)(C(=O)N3CCN(C)CC3)OC2)cc1` (stereo not shown) [Example 105, (5-((3-(tert-butyl)-1-(p-tolyl)-1H-pyrazol-5-yl)methyl)-2-methyl-1,3-dioxan-2-yl)(4-methylpiperazin-1-yl)methanone] here?
A: 10%

Q: And the inhibition at 100 µM (Concentration 100 μM)?
A: 40%

Q: Which results are given for `Cc1oc(-c2ccccc2)nc1CCC1COC(C)(C(=O)N2CCN(C)CC2)OC1` (stereo not shown) [Example 43, (2-methyl-5-c-(2-(5-methyl-2-phenyloxazol-4-yl)ethyl)-1,3-dioxan-2-yl)(4-methylpiperazin-1-yl)methanone]?
A: % Inhibition PCSK9 (Concentration 10 μM): 8%; % Inhibition PCSK9 (Concentration 100 μM): 10%

Q: Which results are given for `Cc1oc(-c2ccncc2)nc1CC1COC(C)(C(=O)N2CCOCC2)OC1` (stereo not shown) [Example 83, (2-methyl-5-t-((5-methyl-2-(pyridin-4-yl)oxazol-4-yl)methyl)-1,3-dioxan-2-yl)(morpholino)methanone]?
A: % Inhibition PCSK9 (Concentration 1 μM, 1 µM): 20%; % Inhibition PCSK9 (Concentration 10 μM, 10 µM): 25%; % Inhibition PCSK9 (Concentration 100 μM): 42%

Q: Which “% Inhibition PCSK9” value (Concentration 10 μM, 10 µM) does the source give for `Cc1oc(-c2ccncc2)nc1CC1COC(C)(C(=O)NCC(=O)NCC2CCOCC2)OC1` (stereo not shown) [Example 89, 2-methyl-5-t-((5-methyl-2-(pyridin-4-yl)oxazol-4-yl)methyl)-N-(2-oxo-2-(((tetrahydro-2H-pyran-4-yl)methyl)amino)ethyl)-1,3-dioxane-2-carboxamide] here?
A: 7%

Q: And the “% Inhibition PCSK9” value (Concentration 100 μM, 100 µM)?
A: 10%

Q: What does the source list for `Cc1oc(-c2ccccc2)nc1CCC1COC(C)(C(=O)N2CCSCC2)OC1` (stereo not shown) [Example 45, (2-methyl-5-c-(2-(5-methyl-2-phenyloxazol-4-yl)ethyl)-1,3-dioxan-2-yl)(thiomorpholino)methanone]?
A: % Inhibition PCSK9 (Concentration 10 μM): 11%; % Inhibition PCSK9 (Concentration 100 μM): 18%

Q: Which results are given for `CC(=O)C(Cc1ccccc1)NC(=O)CNC(=O)C1(C)OCC(CCc2nc(-c3ccccc3)oc2C)CO1` (stereo not shown) [Example 55, 2-methyl-5-(2-(5-methyl-2-phenyloxazol-4-yl)ethyl)-N-(2-oxo-2-((3-oxo-1-phenylbutan-2-yl)amino)ethyl)-1,3-dioxane-2-carboxamide]?
A: inhibition at 10 µM (Concentration 10 μM): 23%; inhibition at 100 µM (Concentration 100 μM): 30%

Q: `Cc1ccc(-c2nc(CC3COC(C)(C(=O)N4CCOCC4)OC3)c(C)o2)cc1` (stereo not shown) [Example 65, (2-methyl-5-((5-methyl-2-(p-tolyl)oxazol-4-yl)methyl)-1,3-dioxan-2-yl)(morpholino)methanone] was tested. Which inhibition at 1 µM (Concentration 1 μM) did it give?
A: 11%

Q: And the inhibition at 10 µM (Concentration 10 μM)?
A: 26%

Q: And the inhibition at 100 µM (Concentration 100 μM)?
A: 35%

Q: Which results are given for `Cc1ccc(-c2nc(CC3COC(C)(C(=O)N4CCOCC4)OC3)c(C)o2)cc1` (stereo not shown) [Example 66, (2-methyl-5-c-((5-methyl-2-(p-tolyl)oxazol-4-yl)methyl)-1,3-dioxan-2-yl)(morpholino)methanone]?
A: % Inhibition PCSK9 (Concentration 1 μM, 1 µM): 23%; % Inhibition PCSK9 (Concentration 10 μM, 10 µM): 25%; % Inhibition PCSK9 (Concentration 100 μM, 100 µM): 31%

Q: `Cc1oc(-c2ccccc2)nc1CC1COC(C)(C(=O)NOCc2ccccc2)OC1` (stereo not shown) [Example 1, N-(benzyloxy)-2-methyl-5-((5-methyl-2-phenyloxazol-4-yl)methyl)-1,3-dioxane-2-carboxamide] was tested. Which inhibition at 5 µM did it give?
A: 25%

Q: And the inhibition at 10 µM (Concentration 10 μM)?
A: 30%

Q: What about the inhibition at 100 µM (Concentration 100 μM) of the same compound?
A: 32%

Q: How did the “% Inhibition PCSK9” value (Concentration 10 μM) turn out when `Cc1oc(-c2ccccc2)nc1CCC1COC(C)(C(=O)NCC(=O)N2CCSCC2)OC1` (stereo not shown) [Example 52, 2-methyl-5-c-(2-(5-methyl-2-phenyloxazol-4-yl)ethyl)-N-(2-oxo-2-thiomorpholinoethyl)-1,3-dioxane-2-carboxamide] was run?
A: 20%

Q: And the “% Inhibition PCSK9” value (Concentration 100 μM)?
A: 32%

Q: With `Cc1oc(-c2ccncc2)nc1CC1COC(C)(C(=O)NCC(=O)N2CCOCC2)OC1` (stereo not shown) [Example 87, 2-methyl-5-t-((5-methyl-2-(pyridin-4-yl)oxazol-4-yl)methyl)-N-(2-morpholino-2-oxoethyl)-1,3-dioxane-2-carboxamide] as the compound, how does the “% Inhibition PCSK9” value (Concentration 10 μM, 10 µM) read?
A: 12%

Q: And the “% Inhibition PCSK9” value (Concentration 100 μM, 100 µM)?
A: 7%

Q: What does the source list for `Cc1ccc(-c2nc(CC3COC(C)(C(=O)NCC4CCOCC4)OC3)c(C)o2)s1` (stereo not shown) [Example 75, 2-methyl-5-t-((5-methyl-2-(5-methylthiophen-2-yl)oxazol-4-yl)methyl)-N—((tetrahydro-2H-pyran-4-yl)methyl)-1,3-dioxane-2-carboxamide]?
A: % Inhibition PCSK9 (Concentration 1 μM, 1 µM): 15%; % Inhibition PCSK9 (Concentration 10 μM, 10 µM): 11%; % Inhibition PCSK9 (Concentration 100 μM, 100 µM): 20%

Q: With `Cc1oc(-c2ccccc2)nc1CCC1COC(C)(C(=O)N2CCOCC2)OC1` (stereo not shown) [Example 41, (2-methyl-5-c-(2-(5-methyl-2-phenyloxazol-4-yl)ethyl)-1,3-dioxan-2-yl)(morpholino)methanone] as the compound, how does the “% Inhibition PCSK9” value (Concentration 10 μM) read?
A: 12%

Q: What about the “% Inhibition PCSK9” value (Concentration 100 μM) of the same compound?
A: 19%

Q: With `CC(=O)C(Cc1ccccc1)NC(=O)C1(C)OCC(CCc2nc(-c3ccccc3)oc2C)CO1` (stereo not shown) [Example 54, 2-methyl-5-(2-(5-methyl-2-phenyloxazol-4-yl)ethyl)-N-(3-oxo-1-phenylbutan-2-yl)-1,3-dioxane-2-carboxamide] as the compound, how does the inhibition at 10 µM (Concentration 10 μM) read?
A: 21%

Q: What about the inhibition at 100 µM (Concentration 100 μM) of the same compound?
A: 29%

Q: For `Cc1oc(-c2ccccc2)nc1CC1COC(C)(C(=O)NCC(=O)N2CCSCC2)OC1` (stereo not shown) [Example 23, 2-methyl-5-c-((5-methyl-2-phenyloxazol-4-yl)methyl)-N-(2-oxo-2-thiomorpholinoethyl)-1,3-dioxane-2-carboxamide], which “% Inhibition PCSK9” value (Concentration 10 μM) is on record?
A: 21%

Q: And the “% Inhibition PCSK9” value (Concentration 100 μM)?
A: 22%
